Data taken from patent US5849782A, “Methods of inhibiting neurodegenerative diseases” (The General Hospital Corporation, priority 1996, dated 1998).

Tested on: rats
Assay: Striatal lesions produced by systemic 3-NP
Type: in vivo, rat
Experimental: Systemic 3-NP treatment. 3-NP was diluted in water and adjusted to pH 7.4 with NaOH and administered at a dose of 10 mg/kg i.p. every 12 h. With this dosing regimen the animals become acutely ill after 4 to 5 days and show large striatal lesions. (Beal et al. (1993) J. Neurosci. 13:4181-4192.) At the same time points, 25 mg/kg of 7-NI dissolved in peanut oil at a concentration of 10 mg/ml (treated group) or vehicle alone (peanut oil, control group) was administered s.c.. Since there was variability in the times at which animals became ill, they were clinically examined 3 hours after the injections and 1 animal of each group was sacrificed when an animal was acutely ill, regardless of whether it was a vehicle treated control or a 7-NI treated animal. In an initial experiment 12 animals per group were studied. Following sacrifice, striatal lesion size was assessed by TTC staining.
In a second experiment, 5 animals per group were studied with the same treatment paradigm. Since the first experiment had shown by pairwise sacrifice that the vehicle treated animals always became ill before the 7-NI treated animals, a third experimental group of 5 animals was included to determine whether 7-NI treated animals become ill following administration of 3-NP. […] In this experiment animals were deeply anesthetized and transcardially perfused with ice cold saline, followed by phosphate buffered 4% paraformaldehyde (Beal et al. (1991) J. Neurosci. 11:1649-1659). Brains were sectioned at 50 μm intervals on a freezing microtome. Combined staining for Nissl substance and NADPH-diaphorase was performed. Adjacent sections were stained by immunohistochemistry with antibodies against ^8 -hydroxy-2deoxyguanosine.

In the case of O=[N+]([O-])c1cccc2cn[nH]c12 [7-NI, 7-nitroindazole], the “protection of striatum from 3-NP lesions (Nissl/NADPH-diaphorase histology)” value (3-NP 10 mg/kg every 12 h with 7-NI, n=5) is reported as “completed protected”, the “striatal lesions produced by 3-NP (TTC staining)” value (3-NP 10 mg/kg i.p. every 12 h, 7-NI 50 mg/kg every 12 h as printed) is reported as “completely prevented” and the “median accumulative 3-NP dose at first symptoms” value (12 h) is reported as 130 mg/kg.
